According to paper PMC9897792, “Discovery of novel 2-(4-(benzyloxy)-5-(hydroxyl) phenyl) benzothiazole derivatives as multifunctional MAO-B inhibitors for the treatment of Parkinson’s disease” (Journal of Enzyme Inhibition and Medicinal Chemistry, 2023):

What was measured:
MAO-A = molecular target: T1, MAO-A (Homo sapiens, UniProt P21397); experiment: MAO-A inhibition, kynuramine method; type: biochemical; conditions: at the concentration of 10.0 μM; n.a. = no active, percent inhibition <5.0%; read-out: %Inhibition MAO-A
T1 sequence (P21397 1-527): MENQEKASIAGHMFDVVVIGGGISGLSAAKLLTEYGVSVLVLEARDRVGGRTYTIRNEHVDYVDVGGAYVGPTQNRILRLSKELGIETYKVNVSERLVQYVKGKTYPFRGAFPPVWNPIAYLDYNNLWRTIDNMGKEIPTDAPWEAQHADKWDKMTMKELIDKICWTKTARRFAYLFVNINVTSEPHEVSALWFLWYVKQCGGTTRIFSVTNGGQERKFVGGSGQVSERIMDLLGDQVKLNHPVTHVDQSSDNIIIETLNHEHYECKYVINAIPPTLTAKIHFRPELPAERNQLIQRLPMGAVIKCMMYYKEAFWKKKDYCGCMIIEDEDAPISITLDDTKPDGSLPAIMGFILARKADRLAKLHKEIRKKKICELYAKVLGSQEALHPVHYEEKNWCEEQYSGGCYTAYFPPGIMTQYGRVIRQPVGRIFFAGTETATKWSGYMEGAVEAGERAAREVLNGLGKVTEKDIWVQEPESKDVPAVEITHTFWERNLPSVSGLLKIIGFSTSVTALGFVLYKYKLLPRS

MAO-B = molecular target: T2, MAO-B (Homo sapiens, UniProt P27338); experiment: Reversibility study of MAO-B inhibition by dialysis method; type: biochemical
T2 sequence (P27338 1-520): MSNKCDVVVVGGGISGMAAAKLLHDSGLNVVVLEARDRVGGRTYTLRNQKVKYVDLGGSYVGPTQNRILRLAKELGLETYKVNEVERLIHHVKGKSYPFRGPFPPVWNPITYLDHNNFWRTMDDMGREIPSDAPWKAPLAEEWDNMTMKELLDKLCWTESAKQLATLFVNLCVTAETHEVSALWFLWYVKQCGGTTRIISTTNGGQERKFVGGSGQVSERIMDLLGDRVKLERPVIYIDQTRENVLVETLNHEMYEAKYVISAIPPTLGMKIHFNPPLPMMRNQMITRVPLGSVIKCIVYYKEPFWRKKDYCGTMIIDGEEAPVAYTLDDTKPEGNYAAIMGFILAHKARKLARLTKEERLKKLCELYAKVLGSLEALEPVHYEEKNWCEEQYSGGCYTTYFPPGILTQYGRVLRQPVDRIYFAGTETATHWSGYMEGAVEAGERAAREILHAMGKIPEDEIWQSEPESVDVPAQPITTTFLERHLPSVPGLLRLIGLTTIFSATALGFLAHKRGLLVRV
Protocol: The mixture was incubated at 37 °C for 30 min and transferred to dialysis bag (MWCO: 10 000, flattening width: 24 mm, length: 8–10 cm). Then, this dialysis bag was placed in 200 ml PBS for 24 h, and the outer PBS was replaced with fresh at 3 and 7 h, respectively. As for the undialysis group, the mixture was placed at 4 °C for 24 h. After dialysis, the mixtures (40 µL) in the dialysis bag were taken out to measure the catalytic activity, and the test method was similar with the inhibition experiment of MAOs. […] The test compound solution was replaced with PBS buffer at the same volume in the blank group.

[1] = Stoichiometry of 3h-Fe^2+ complex by molar ratio method; type: physicochemical; conditions: absorbance at 385 nm; FeSO4 0–187.5 µM; 3h 75 µM in methanol
Protocol: Because Fe^2+ played a crucial role in the pathogenesis of PD, the stoichiometry of 3h-Fe^2+ complex was further measured by using molar ratio method. 3h was incubated with various concentrations of FeSO4 (0–187.5 µM), and the electronic spectra were detected.
As the Fe^2+ played important role in the pathogenetic process of PD, the stoichiometry of 3h-Fe^2+ complex was detected by using molar ratio method. In detail, test compound solution (1.0 ml, 75 µM in methanol) was incubated with Fe^2+ solution (1.0 ml, 7.5–187.5 µM in methanol) at 37 °C for 30 min. Then, the mixture was removed from the vial to a quartz cell, and the absorbance of mixture at 200–800 nm was measured by using UV spectrophotometer (Shimadzu UV-1900i).

[2] = test system: NO release in LPS-activated BV-2 microglia cells; experiment: LPS-induced NO release in BV-2 cells (Griess method); type: cell-based; conditions: Mus musculus, LPS 1.0 µg/mL, read-out: inhibitory rate of LPS-induced NO release
Protocol: Then, Griess method was performed to measure the inhibitory effect of 3h on LPS-induced NO release in BV-2 cells. […] It reflected that LPS could induce the activation of BV-2 cells and induce neuroinflammation.
ELISA and Griess reaction methods were performed to detect the inhibitory effect of 3h on the release of TNF-α and NO in LPS-stimulated BV-2 cells[46]^,[47]. BV-2 cells in the logarithmic phase were seeded into 96-well cell culture plate, and these cells were incubated at 37 °C for 24 h at the atmosphere of 5% CO2. After incubation, the culture solution was replaced by fresh one (90 µL without serum), and test compound solution (10 µL) was added. After addition, the plate was incubated for 30 min, then LPS (10 µL, 1.0 µg/ml in PBS) was added to each well, and the mixture would be incubated for another 24 h at 37 °C. After the final incubation, the supernatants were taken out to measure the level of TNF-α and NO according to the procedures depicted on the kits (kits were purchased from Nanjing Jiancheng Bioengineering Institute).

Oc1cc(OCc2ccc(F)cc2)ccc1-c1nc2ccccc2s1 [3h, 2-(Benzo[d]thiazol-2-yl)-5-((4-fluorobenzyl)oxy)phenol]
inhibition at 10 µM (MAO-A): 39.7 ± 0.54%
MAO-B inhibitory mode (MAO-B; classified by MAO-B catalytic activity in dialysis group): reversible (reversible inhibition: MAO-B catalytic activity ≥ 80%)
MAO-B catalytic activity, undialysis group (MAO-B; test compound 4 × IC50, 4 °C for 24 h without dialysis): 27.6%
MAO-B catalytic activity, dialysis group (MAO-B; test compound 4 × IC50, dialysis 24 h): 80.9%
molar ratio at intersection of straight lines (molar ratio method) [1]: 1.65
inhibition at 0.5 µM ([2]; 0.5 µM): 15.8%
inhibition at […] ([2]; 2.5 µM): 35.8%
inhibition at 10 µM ([2]; 10.0 µM): 63.7%
